# Test results reported in patent US20240316012A1, “METHODS FOR TREATING LYMPHOMA” (Northwestern University, priority 2023, published 2024).
# Tests used:
# [1] = tested on: PDCD1-mutant lymphoma cells (primary CTCL); assay: Inhibitor treatment of human cells in vitro, division index, PDCD1-mutant CTCL cells; type: cell-based; details: 2-DG 1 mM, everolimus 0.1 μM, BMS-303141 10 μM; anti-CD3/anti-CD28 beads, 6 days; FIG. 7E
# Procedure: (§1) FIGS. 7A-7H show ACLY dependency and AP-1 activation in human PDCD1 defective T-NHL. […] CNA, copy number aberrations. FIG. 7B GSEA for the indicated gene sets based on RNA-seq data from the 21 CTCL patients shown in (a). NES, normalized enrichment score; FDR, false discovery rate. […] P=one-way ANOVA and two-sided Student's t-test. Shown are the mean±SD and individual data points. […] FACS-sorted malignant cells were stimulated with anti-CD3/anti-CD28 beads, and 2-NBDG uptake was determined at the indicated time points. P=two-sided Student's t-test. Shown are the mean±SEM and individual data points. […] CFSE, carboxyfluorescein succinimidyl ester. P=two-sided Student's t-test. The data are presented as the mean±SEM and individual data points. […] Legend as in (5a). […] FIG. 7H GSEA for the indicated gene sets with RNA-seq data from 21 CTCL PDCD1mut” or “PDCD1 wt, and three patients with hyperprogression. NES, normalized enrichment score; FDR, false discovery rate. FIGS. 7A and 7B, Data from a single experiment with 21 patients. FIGS. 7C and 7D, Data from one experiment with three patients per group and three healthy donors. FIG. 7E, Data from one experiment with three patients and three healthy donors. FIGS. 7F and 7G, Data from one experiment with three patients per group. FIG. 7H, Data from a single experiment.
# (§2) Isolation of primary human CTCL cells. This study was approved by the Northwestern University Institutional Review Board. Patients provided informed consent for inclusion in the study. […] The tumor burden for each patient was determined using well-validated clinical markers, taking whichever value was higher between Sezary cell counts or the CD26 negative cell number by clinical flow cytometry. These were analyzed in conjunction with white blood cell and absolute lymphocyte counts.
# (§3) Inhibitor treatment of human cells in vitro Malignant CTCL cells and CD4^+ T cells from healthy donors were isolated as previously described. […] After 6 days, the cells were analyzed by flow cytometry, and the division index was determined using the FlowJo proliferation tool (v10.6, FlowJo LLC).
# [2] = tested on: PD-1 wild-type tumors (primary CTCL); assay: Inhibitor treatment of human cells in vitro, division index, PD-1 wild-type CTCL cells; type: cell-based; details: 2-DG 1 mM, everolimus 0.1 μM, BMS-303141 10 μM; 6 days; FIG. 7E
# Procedure: as §1, §2, §3
Structure (SMILES),"viability, division and proliferation of PDCD1-mutant cancer cells (relative division index) [1]",response of stage-matched PD-1 wild-type tumors (relative division index) [2]
"O=CC[C@@H](O)[C@H](O)[C@H](O)CO [2-DG, 2-deoxy-D-glucose]",significantly impaired cell proliferation,resistant
COc1ccc(-c2ccccc2)cc1NS(=O)(=O)c1cc(Cl)cc(Cl)c1O [BMS-303141],significantly impaired cell proliferation,resistant
